According to US20040197407A1, “Methods and dosage forms with modified layer geometry” (priority 2003, published 2004):
Counter-ions that a name gives are not always drawn.

Key:
[1] = cited from earlier work
[2] = FIG. 6
Excerpt: FIG. 6 illustrates blood plasma concentrations at various times achieved through various means of delivery. This figure illustrates the time necessary to achieve a particular blood plasma concentration.

[3] = in vivo; cited from earlier work
[4] = in vivo; cited from earlier work; remark: listed apart in the source

| colonic absorption [2] | Compound | solubility in alcohol ([1]; alcohol) | solubility in hydrocarbon solvents ([1]; hydrocarbon solvents) | solubility in isopropanol ([1]; isopropanol) | solubility in water ([1]; water) | half-life [3] [h] | reported side effects [4] |
| --- | --- | --- | --- | --- | --- | --- | --- |
| – | CN(C)CCC=C1c2ccccc2C=Cc2ccccc21 [Cyclobenzaprine hydrochloride, cyclobenzaprine hydrochloride] | freely soluble | insoluble | sparingly soluble | freely soluble | – | – |
| colonic absorption | CN(C)CCC=C1c2ccccc2C=Cc2ccccc21 [cyclobenzaprine] | – | – | – | – | 24 to 72 | sedation and dry mouth |
